Data published in PMC9916658, “Design and Synthesis of New Quinazolin-4-one Derivatives with Negative mGlu7 Receptor Modulation Activity and Antipsychotic-Like Properties” (International Journal of Molecular Sciences, 2023).
≈ marks a conversion by molar mass, not a printed value. Where two headings read alike, the source gives them in different places.

Tests used:
[1] = molecular target: T1, recombinant human mGlu7 receptor (FAST-0154C) (Homo sapiens, UniProt Q14831); assay: NAM mGlu7 activity on CHO-K1 cell line, cAMP HTRF (EuroscreenFast protocol); type: cell-based; conditions: CHO-K1 human mGlu7, agonist L-AP4 at EC80
T1 construct: host or cells: CHO-K1
From the text: with inducible expression of human mGlu7 receptor. […]
2.2. NAM mGlu7 receptor activity on CHO-K1 cell line according to EuroscreenFast protocol
ALX-065 and ALX-171 were testing for negative allosteric modulator (NAM) activity on alternative […]
mGlu7 cell line (recombinant human mGlu7 receptor (FAST-0154C) using cAMP HTRF functional assay) […]
by EuroscreenFast company according to the provided methodology.
Receptor Accession Cell line Reference Reference
Number agonist antagonist
Compounds were tested for NAM activity at the human mGlu7 receptor (FAST-0154C) in dose […]
response and in duplicates (range concentration: 1 nM – 25 µM) […]
cAMP HTRF assay for Gi coupled receptor
CHO-K1 cells expressing recombinant human mGlu7 receptor (FAST-0154C) grown prior to the test […]
inmedia without antibiotic are detached by gentle flushing with PBS-EDTA (5 mM EDTA), recovered […]
by centrifugation and resuspended in assay buffer (KRH: 5 mM KCl, 1.25 mM MgSO4, 124 mM NaCl, […]
25 mM HEPES, 13.3 mM Glucose, 1.25 mM KH2PO4, 1.45 mM CaCl2, 0.5 g/L BSA, supplemented with 1 […]
Dose response curves are performed in parallel with the reference compounds.
For antagonist/NAM test (96 well): 12 µl of cells are mixed with 6 µl of the test compound at increasing concentrations and then incubated 10 min. Thereafter 6 µl of the mix of the forskolin and reference agonist is added at a final concentration corresponding to the historical EC80. The plates are then incubated for 30 min at room temperature. After addition of the lysis buffer and 1 hour incubation, cAMP concentrations are estimated, according to the manufacturer specification, with the HTRF kit. […]

[2] = Pharmacokinetics and brain uptake in mice after i.p. administration; type: in vivo, mouse (Albino Swiss); conditions: mouse Albino Swiss, 10 mg/kg i.p.; for AUC(0-t): ip
Procedure: Compounds were administered to mice at a dose of 10 mg/kg i.p. Plasma and tissue samples were collected at 0.25, 0.50, 1.0, 2.0, 4.0, 6.0, and 24 h. Plasma and tissue samples from all drug-treated animals were thawed at room temperature prior to use. The standard protocol for sample preparation was used: 200 μL of acetonitrile was added to the Eppendorf tubes with 50 μL of studied plasma samples or tissue homogenate. Samples were mixed for 5 min on a mixer at 25 °C and 1400 rpm. The tubes were then centrifuged at 2000× g for 15 min at 4 °C. A total of 180 μL of each supernatant was transferred to a plate well. Finally, each sample was injected into the LC–MS column. Calibration curve serial dilution method: Plasma was spiked with a standard at different concentrations. Acetonitrile was added. After mixing and centrifugation, the supernatant was collected.
Chromatographic conditions. Plasma and tissue samples from all drug-treated animals at selected time points were analyzed using a previously developed nonvalidated LC–MS/MS method. […] The LC–MS analysis was carried out on a Bruker amaZon SL mass spectrometer using the positive/negative ion ESI mode. Chromatographic separation was achieved on an Ascentis Express C18 column (5 cm × 2.1 mm, 2.7 μM, Supelco Technologies) at room temperature with a thermostatted column oven. A gradient elution of eluents A (acetonitrile (LiChrosolv, Reag. Ph Eur) + 0.1% formic acid (Sigma Aldrich, 98–100%)) and B (water + 0.1% formic acid) were used for separation. The flow rate was set at 1 mL/min. The injection volume was 20 μL, and the time of injection was 4 min.
Mass spectrometric conditions. An ion trap mass spectrometer (Bruker amaZon SL, Bruker, Bremen, Germany) was equipped with an electrospray source operating in the positive/negative ion mode. Data were collected and processed using Bruker Quant Analysis (Bruker, Bremen, Germany) software. A quantification of the analytes was performed in the SIM mode.

[3] = Kinetic solubility assay in HBSS buffer; type: physicochemical; conditions: aqueous buffer, kinetic from dmso stock; Hanks-HEPES (HBSS buffer), pH 7.4; read-out: KS (kinetic solubility)
Procedure: The kinetic solubility assay was performed to determine the solubility of the compounds in the in vitro assay conditions. The assay investigated the solubility based on the precipitation process in the HBSS buffer. For the preparation of the assay buffer, the following compounds were dissolved in 800 mL purified water: • − 130 mM sodium chloride, NaCl (7.600 g); • − 5.4 mM potassium chloride, KCl (0.403 g); • − 0.8 mM magnesium sulfate, MgSO4 × 7H2O (0.197 g); • − 0.9 mM sodium phosphate monobasic, NaH2PO4 × 2H2O (0.140 g); • − 25 mM D-glucose (4.500 g); • − 20 mM HEPES sodium salt (5.210 g).
The buffer was adjusted to pH 7.4, and the following compound was added to the mixture: • − 1.8 mM calcium chloride, CaCl2 × 2H2O (0.265 g).
The total volume was adjusted to 1000 mL.
The investigated compounds were diluted (in triplicate) with the HBSS buffer at pH 7.4 to a final concentration of 500 μM.
The mixture was shaken on a filter plate at 500 rpm for 1.5 h at RT. After incubation, the filter plate was placed inside a vacuum manifold and filtrated. Samples were collected and the concentration of the filtrate was determined spectrophotometrically by measuring the UV–VIS absorption spectrum. Concentrations were calculated based on equations resulting from the calibration curves (in duplicates, 8 calibration points, dilution Factor ×2, 500 µM → 3.91 µM, including blank sample).

[4] = Metabolic stability in mouse microsomal fraction; type: in vitro ADME; conditions: 1 µM, mouse microsomes 0.3 mg/mL, NADPH-regenerating system
Procedure: A metabolic stability assay was performed using a mouse microsomal fraction (phase I of metabolism) obtained from XenoTech (Kansas City, MO, USA). Compounds for metabolic stability testing were prepared as 10 mM stock solutions in DMSO. Compounds were incubated in triplicate at a 1 µM initial concentration with the microsomal fraction in the presence of NRS (NADPH-regenerating system, 1.3 mM). The final microsomal incubation (0.3 mg/mL) contained the components mentioned below in a pH 7.4 phosphate buffer. Control incubations were conducted without cofactors. The reference compound verapamil was used as a positive control. Incubations were carried out for 1 h on 96-well plates using a heated (+37 °C) orbital shaker (350 rpm). After incubation, the reaction was quenched through the addition of cold acetonitrile. The plate containing the samples was centrifuged at 2000 rpm for 15 min at 4 °C. The supernatants were analyzed using LC–MS.
The HPLC–MS consisted of a Dionex, Ultimate 3000 HPLC, and a Bruker Daltonics amaZon SL mass spectrometer (ESI-IT). The conditions were as follows: Column HPLC Ascentis Express C18 (5 cm × 2.1 mm, 2.7 µm) and an injection volume of 20 µL. An acetonitrile gradient was used with 0.1% formic acid in water at a constant flow rate of 1 mL/min. The programming was as follows: 0–0.5 min 5% ACN, 0.5–3.0 increase of 5–95%, 3.0–3.3 remaining at 95% ACN, 3.3–3.4 min decrease of 95–5% ACN, and 3.4–4.0 min 5% ACN. Samples were analyzed in a single-ion monitoring scan mode in positive mode. The conditions of the main parameters were as follows: a trap drive of 48.2, capillary exit voltage of 140.0 V, dry temperature (set) of 300 °C, nebulizer pressure (set) of 40.00 psi, dry gas flow (set) of 9.00 L/min HV capillary voltage of −4500 V, HV end-plate offset voltage of −500 V.
The percent loss of compounds was calculated through the normalization of the peak area against time 0, where the peak area at T0 was 100%. The elimination rate constant (h) was determined from the plot of ln (percent loss of compound) as a time function and equal to the minor value of the linear curve slope.

[5] = test system: animal models of schizophrenia; conditions: cited from earlier work

T1 sequence (Q14831 35-915): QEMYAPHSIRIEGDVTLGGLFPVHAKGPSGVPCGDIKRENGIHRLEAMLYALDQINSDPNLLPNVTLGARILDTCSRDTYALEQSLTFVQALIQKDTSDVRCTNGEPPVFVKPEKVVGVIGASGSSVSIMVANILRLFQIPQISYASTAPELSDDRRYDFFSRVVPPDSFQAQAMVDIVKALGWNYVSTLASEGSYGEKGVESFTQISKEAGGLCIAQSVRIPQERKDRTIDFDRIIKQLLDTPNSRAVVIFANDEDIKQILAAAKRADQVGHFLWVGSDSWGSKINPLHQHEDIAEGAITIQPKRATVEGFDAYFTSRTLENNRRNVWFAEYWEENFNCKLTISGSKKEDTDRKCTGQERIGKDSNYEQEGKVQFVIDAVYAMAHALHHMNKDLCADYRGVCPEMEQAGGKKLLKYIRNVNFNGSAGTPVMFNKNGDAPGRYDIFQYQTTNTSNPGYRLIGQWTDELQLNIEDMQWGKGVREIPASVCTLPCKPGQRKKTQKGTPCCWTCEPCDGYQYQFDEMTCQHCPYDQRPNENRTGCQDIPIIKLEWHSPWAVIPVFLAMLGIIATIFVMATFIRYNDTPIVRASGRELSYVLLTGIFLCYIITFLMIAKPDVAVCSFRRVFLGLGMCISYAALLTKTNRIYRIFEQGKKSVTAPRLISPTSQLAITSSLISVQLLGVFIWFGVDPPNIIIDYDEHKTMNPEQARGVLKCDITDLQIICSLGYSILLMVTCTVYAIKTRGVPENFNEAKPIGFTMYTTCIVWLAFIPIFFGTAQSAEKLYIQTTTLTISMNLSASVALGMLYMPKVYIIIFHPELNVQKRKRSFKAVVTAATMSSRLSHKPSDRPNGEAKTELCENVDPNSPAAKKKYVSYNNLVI

Structure (SMILES): COc1ccc(-c2cc3onc(-c4ccncc4)c3c(=O)n2C)cc1 [MMPIP, reference compound]
- % inhibition at maximal concentration ([1]; range 1 nM – 25 µM): 100%
- IC50 ([1]; read-out: IC50 (CHO-K1, Figure S4)): 270 nM
- AUC(0-t) ([2]; brain, read-out: AUC0-t, brain): 8.98 µM·h
- AUC(0-t) ([2]; plasma, read-out: AUC0-t, plasma): 13.5 µM·h
- Cmax, brain ([2]; brain): 5.42 µM/L
- Tmax, plasma ([2]; plasma): 15 min
- solubility kinetic at 1.5 h [3]: 5.6 µM (≈ 1.87 µg/mL)
- MML (metabolic stability liver microsome mouse) [4]: 49.78 % remaining after 60 min
- MK-801-induced disruptions in social interaction [5]: not observed
- prepulse inhibition (PPI) [5]: not observed
- activity in animal models of schizophrenia ([5]; mGlu7 NAMs): antipsychotic activity
